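Test compounds were applied to cells in 96-well plates for 48 hours at 5 doses. TGI marks complete inhibition of growth.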
Assays:
Assay in all cases: NCI-60 cell line screen, 48 h
786-0 renal = test system: 786-0 renal
A498 renal = test system: A498 renal
A549 NSCLC = test system: A549 NSCLC
ACHN renal = test system: ACHN renal
BT-549 breast = test system: BT-549 breast
CAKI-1 renal = test system: CAKI-1 renal
CCRF-CEM leukemia = test system: CCRF-CEM leukemia
COLO 205 colon = test system: COLO 205 colon
DU-145 prostate = test system: DU-145 prostate
EKVX NSCLC = test system: EKVX NSCLC
HCC-2998 colon = test system: HCC-2998 colon
HCT-116 colon = test system: HCT-116 colon
HCT-15 colon = test system: HCT-15 colon
HL-60(TB) leukemia = test system: HL-60(TB) leukemia
HOP-62 NSCLC = test system: HOP-62 NSCLC
HOP-92 NSCLC = test system: HOP-92 NSCLC
HS 578T breast = test system: HS 578T breast
HT29 colon = test system: HT29 colon
IGROV1 ovarian = test system: IGROV1 ovarian
K-562 leukemia = test system: K-562 leukemia
KM12 colon = test system: KM12 colon
LOX IMVI melanoma = test system: LOX IMVI melanoma
M14 melanoma = test system: M14 melanoma
MCF7 breast = test system: MCF7 breast
MDA-MB-231 breast = test system: MDA-MB-231 breast
MDA-MB-435 = test system: MDA-MB-435
MDA-N = test system: MDA-N
MOLT-4 leukemia = test system: MOLT-4 leukemia
NCI-H226 lung = test system: NCI-H226 lung
NCI-H23 lung = test system: NCI-H23 lung
NCI-H460 lung = test system: NCI-H460 lung
NCI-H522 lung = test system: NCI-H522 lung
NCI/ADR-RES ovarian = test system: NCI/ADR-RES ovarian
OVCAR-3 ovarian = test system: OVCAR-3 ovarian
OVCAR-4 ovarian = test system: OVCAR-4 ovarian
OVCAR-5 ovarian = test system: OVCAR-5 ovarian
OVCAR-8 ovarian = test system: OVCAR-8 ovarian
PC-3 prostate = test system: PC-3 prostate
RXF 393 renal = test system: RXF 393 renal
SF-268 CNS = test system: SF-268 CNS
SF-295 CNS = test system: SF-295 CNS
SK-MEL-28 melanoma = test system: SK-MEL-28 melanoma
SK-MEL-5 melanoma = test system: SK-MEL-5 melanoma
SK-OV-3 ovarian = test system: SK-OV-3 ovarian
SN12C renal = test system: SN12C renal
SNB-19 CNS = test system: SNB-19 CNS
SNB-75 CNS = test system: SNB-75 CNS
SR leukemia = test system: SR leukemia
SW-620 colon = test system: SW-620 colon
T-47D breast = test system: T-47D breast
TK-10 renal = test system: TK-10 renal
U251 CNS = test system: U251 CNS
UACC-257 melanoma = test system: UACC-257 melanoma
UACC-62 melanoma = test system: UACC-62 melanoma
UO-31 renal = test system: UO-31 renal
MALME-3M melanoma = test system: MALME-3M melanoma
RPMI-8226 leukemia = test system: RPMI-8226 leukemia
SF-539 CNS = test system: SF-539 CNS
SK-MEL-2 melanoma = test system: SK-MEL-2 melanoma

CC(=O)O[C@H]1CC[C@@]2(C)C(=CC[C@@H]3[C@@H]2CC[C@]2(C)c4c(C)nn(-c5ccccc5)c4C[C@@H]32)C1 was tested, and the TGI (786-0 renal) was 35.9 µM, the TGI (A498 renal) was 52.8 µM and the TGI (A549 NSCLC) was > 100 µM. The TGI (ACHN renal) was 61.1 µM, the TGI (BT-549 breast) was 23.8 µM and the TGI (CAKI-1 renal) was 47.2 µM. The TGI (CCRF-CEM leukemia) was 56.9 µM, the TGI (COLO 205 colon) was 36.2 µM and the TGI (DU-145 prostate) was 37.2 µM. For the same compound, the TGI (EKVX NSCLC) was 53.7 µM, the TGI (HCC-2998 colon) was 30.6 µM and the TGI (HCT-116 colon) was > 100 µM. The TGI (HCT-15 colon) was > 100 µM, the TGI (HL-60(TB) leukemia) was 77 µM and the TGI (HOP-62 NSCLC) was 35.2 µM. The TGI (HOP-92 NSCLC) was 70.8 µM, the TGI (HS 578T breast) was 67.2 µM and the TGI (HT29 colon) was > 100 µM. The TGI (IGROV1 ovarian) was > 100 µM, the TGI (K-562 leukemia) was > 100 µM and the TGI (KM12 colon) was 86.7 µM. For the same compound, the TGI (LOX IMVI melanoma) was 27.6 µM, the TGI (M14 melanoma) was > 100 µM and the TGI (MCF7 breast) was > 100 µM. For the same compound, the TGI (MDA-MB-231 breast) was 50.6 µM, the TGI (MDA-MB-435) was > 100 µM and the TGI (MDA-N) was > 100 µM. For the same compound, the TGI (MOLT-4 leukemia) was > 100 µM, the TGI (NCI-H226 lung) was 75.3 µM and the TGI (NCI-H23 lung) was 31.3 µM. For the same compound, the TGI (NCI-H460 lung) was 47.9 µM, the TGI (NCI-H522 lung) was 45.3 µM and the TGI (NCI/ADR-RES ovarian) was > 100 µM. For the same compound, the TGI (OVCAR-3 ovarian) was > 100 µM, the TGI (OVCAR-4 ovarian) was > 100 µM and the TGI (OVCAR-5 ovarian) was 68.1 µM. For the same compound, the TGI (OVCAR-8 ovarian) was > 100 µM, the TGI (PC-3 prostate) was > 100 µM and the TGI (RXF 393 renal) was 19.3 µM. The TGI (SF-268 CNS) was > 100 µM, the TGI (SF-295 CNS) was 12.9 µM and the TGI (SK-MEL-28 melanoma) was > 100 µM. The TGI (SK-MEL-5 melanoma) was > 100 µM, the TGI (SK-OV-3 ovarian) was 44.5 µM and the TGI (SN12C renal) was > 100 µM. The TGI (SNB-19 CNS) was > 100 µM, the TGI (SNB-75 CNS) was 49.9 µM and the TGI (SR leukemia) was 65 µM. For the same compound, the TGI (SW-620 colon) was > 100 µM, the TGI (T-47D breast) was > 100 µM and the TGI (TK-10 renal) was 51 µM. For the same compound, the TGI (U251 CNS) was > 100 µM, the TGI (UACC-257 melanoma) was > 100 µM and the TGI (UACC-62 melanoma) was 39.3 µM. The TGI (UO-31 renal) was 47.3 µM.

With O=C(c1ccccc1)c1ccc2[nH]c(-c3c(Cl)c(Cl)c(Cl)c(Cl)c3C(=O)N/N=C/c3cccc(Oc4ccccc4)c3)nc2c1 the TGI (786-0 renal) was > 100 µM, the TGI (A549 NSCLC) was > 100 µM and the TGI (ACHN renal) was > 100 µM. For the same compound, the TGI (BT-549 breast) was > 100 µM, the TGI (CAKI-1 renal) was > 100 µM and the TGI (CCRF-CEM leukemia) was > 100 µM. For the same compound, the TGI (COLO 205 colon) was > 100 µM, the TGI (DU-145 prostate) was > 100 µM and the TGI (EKVX NSCLC) was > 100 µM. The TGI (HCT-116 colon) was > 100 µM, the TGI (HCT-15 colon) was > 100 µM and the TGI (HL-60(TB) leukemia) was > 100 µM. For the same compound, the TGI (HOP-62 NSCLC) was > 100 µM, the TGI (HOP-92 NSCLC) was > 100 µM and the TGI (HS 578T breast) was > 100 µM. For the same compound, the TGI (HT29 colon) was > 100 µM, the TGI (IGROV1 ovarian) was > 100 µM and the TGI (K-562 leukemia) was > 100 µM. For the same compound, the TGI (KM12 colon) was > 100 µM, the TGI (LOX IMVI melanoma) was > 100 µM and the TGI (M14 melanoma) was > 100 µM. For the same compound, the TGI (MALME-3M melanoma) was > 100 µM, the TGI (MCF7 breast) was > 100 µM and the TGI (MDA-MB-231 breast) was > 100 µM. For the same compound, the TGI (MDA-MB-435) was > 100 µM, the TGI (MDA-N) was > 100 µM and the TGI (MOLT-4 leukemia) was > 100 µM. The TGI (NCI-H226 lung) was > 100 µM, the TGI (NCI-H23 lung) was > 100 µM and the TGI (NCI-H522 lung) was > 100 µM. The TGI (NCI/ADR-RES ovarian) was > 100 µM, the TGI (OVCAR-3 ovarian) was > 100 µM and the TGI (OVCAR-4 ovarian) was > 100 µM. For the same compound, the TGI (OVCAR-5 ovarian) was > 100 µM, the TGI (OVCAR-8 ovarian) was > 100 µM and the TGI (PC-3 prostate) was > 100 µM. For the same compound, the TGI (RPMI-8226 leukemia) was > 100 µM, the TGI (RXF 393 renal) was > 100 µM and the TGI (SF-268 CNS) was > 100 µM. For the same compound, the TGI (SF-295 CNS) was > 100 µM, the TGI (SF-539 CNS) was > 100 µM and the TGI (SK-MEL-2 melanoma) was > 100 µM. The TGI (SK-MEL-28 melanoma) was > 100 µM, the TGI (SK-MEL-5 melanoma) was > 100 µM and the TGI (SK-OV-3 ovarian) was > 100 µM. The TGI (SN12C renal) was > 100 µM, the TGI (SNB-19 CNS) was > 100 µM and the TGI (SNB-75 CNS) was > 100 µM. For the same compound, the TGI (SR leukemia) was > 100 µM, the TGI (SW-620 colon) was > 100 µM and the TGI (T-47D breast) was > 100 µM. The TGI (TK-10 renal) was > 100 µM, the TGI (U251 CNS) was > 100 µM and the TGI (UACC-257 melanoma) was > 100 µM. The TGI (UO-31 renal) was > 100 µM.

CN(C)CCn1c(=O)c2ccc(NCCN3CCNCC3)c3c(=O)c4ccccc4n(c1=O)c23 gave a TGI (786-0 renal) of 14.1 µM, a TGI (A498 renal) of 16.1 µM and a TGI (A549 NSCLC) of 15.9 µM. The TGI (ACHN renal) was 15.7 µM, the TGI (BT-549 breast) was 22.9 µM and the TGI (CAKI-1 renal) was 10.2 µM. The TGI (CCRF-CEM leukemia) was 4.4 µM, the TGI (COLO 205 colon) was 13 µM and the TGI (DU-145 prostate) was 17.7 µM. The TGI (EKVX NSCLC) was 18.6 µM, the TGI (HCC-2998 colon) was 12.8 µM and the TGI (HCT-116 colon) was 12.8 µM. The TGI (HCT-15 colon) was 25.3 µM, the TGI (HL-60(TB) leukemia) was 18.4 µM and the TGI (HOP-62 NSCLC) was 22.8 µM. For the same compound, the TGI (HOP-92 NSCLC) was 9.59 µM, the TGI (HS 578T breast) was 25.9 µM and the TGI (HT29 colon) was 18.8 µM. The TGI (IGROV1 ovarian) was 12.1 µM, the TGI (K-562 leukemia) was 6.85 µM and the TGI (KM12 colon) was 16.4 µM. For the same compound, the TGI (LOX IMVI melanoma) was 11.9 µM, the TGI (M14 melanoma) was 29 µM and the TGI (MALME-3M melanoma) was 17 µM. It also gave a TGI (MCF7 breast) of 12.7 µM, a TGI (MDA-MB-231 breast) of 11.8 µM and a TGI (MDA-MB-435) of 9.01 µM. It also gave a TGI (MDA-N) of 18.9 µM, a TGI (MOLT-4 leukemia) of 0.147 µM and a TGI (NCI-H226 lung) of 15.2 µM. The TGI (NCI-H23 lung) was 16.8 µM, the TGI (NCI-H460 lung) was 12 µM and the TGI (NCI-H522 lung) was 10 µM. The TGI (NCI/ADR-RES ovarian) was 30 µM, the TGI (OVCAR-3 ovarian) was 25.1 µM and the TGI (OVCAR-4 ovarian) was 32.3 µM. It also gave a TGI (OVCAR-5 ovarian) of 42.1 µM, a TGI (OVCAR-8 ovarian) of 31.4 µM and a TGI (PC-3 prostate) of 16.2 µM. The TGI (RPMI-8226 leukemia) was 2.93 µM, the TGI (SF-268 CNS) was 18.7 µM and the TGI (SF-295 CNS) was 18 µM. For the same compound, the TGI (SF-539 CNS) was 9 µM, the TGI (SK-MEL-2 melanoma) was 8.72 µM and the TGI (SK-MEL-28 melanoma) was 25.5 µM. For the same compound, the TGI (SK-MEL-5 melanoma) was 12.7 µM, the TGI (SK-OV-3 ovarian) was 24.6 µM and the TGI (SN12C renal) was 14.6 µM. The TGI (SNB-19 CNS) was 23.9 µM, the TGI (SNB-75 CNS) was 10.1 µM and the TGI (SR leukemia) was 0.322 µM. For the same compound, the TGI (SW-620 colon) was 21.3 µM, the TGI (T-47D breast) was 28.9 µM and the TGI (TK-10 renal) was 27.5 µM. The TGI (U251 CNS) was 24.8 µM, the TGI (UACC-257 melanoma) was 17.3 µM and the TGI (UACC-62 melanoma) was 15.8 µM. It also gave a TGI (UO-31 renal) of 17.9 µM.
